Literature values as cited in patent US20190300958A1, “GENETIC POLYMORPHISMS ASSOCIATED WITH VENOUS THROMBOSIS AND STATIN RESPONSE, METHODS OF DETECTION AND USES THEREOF” (Celera Corporation, priority 2010, published 2019).

What was measured:
myocyte cultures = details: animal models and myocyte cultures, compared to lipophilic statins
[1] = system: major cardiovascular events; details: study of 17,802 individuals

| Structure (SMILES) | myopathic potential (myocyte cultures) | incidence of major cardiovascular events [1] |
| --- | --- | --- |
| CC[C@H](C)C(=O)O[C@H]1C[C@H](O)C=C2C=C[C@H](C)[C@H](CC[C@@H](O)C[C@@H](O)CC(=O)O)[C@H]21 [Pravastatin, pravastatin] | low myopathic potential | – |
| CC(C)c1nc(N(C)S(C)(=O)=O)nc(-c2ccc(F)cc2)c1/C=C/[C@@H](O)C[C@@H](O)CC(=O)O [rosuvastatin] | – | significantly reduced |
